Experiments:
HLE cells = experiment: Cell proliferation assay (CyQUANT NF) in HLE cells; type: cell-based; conditions: HLE cells transfected with siRNA at 20 nM
Method: HLE cells, HCT116 cells, and A549 cells were transfected with 25 to 50 nM ASO and 10 to 20 nM siRNA using Lipofectamine 3000 (Invitrogen, Carlsbad, CA, USA) or RNAiMAX (Invitrogen). Transfected cells were used in the experiments 36 to 48 hours after the end of the transfection.
The cell proliferation assays were performed using the CyQUANT NF Cell Proliferation Assay Kits (Thermo Fisher Scientific), in the way recommended by the manufacturer.
HLE cells were transfected with control ASO, ASO-1316 and ASO-3223 at 25 nM and a proliferation assay was performed; the results of the assay are shown in (e) of FIG. 4.
(§1) HLE cells were transfected with control siRNA and PIK3CD siRNA (siRNA against PIK3CD) at 20 nM, and a proliferation assay was performed; the results are shown in (e) of FIG. 5. In addition, an anti-phosphorylated AKT antibody and an anti-AKT antibody as probes were caused to act on cell lysates of HLE cells transfected with control siRNA and PIK3CD siRNA; the results are shown in FIG. 5 (f). HLE cells were transfected with control siRNA and PIK3CD siRNA (siRNA against PIK3CD) at 20 nM and the PIK3CD mRNA amount was measured by real-time PCR; the results are shown in (c) of FIG. 7.

AKT = experiment: Anti-phosphorylated AKT / anti-AKT probing of HLE cell lysates; type: cell-based; conditions: HLE cells transfected with PIK3CD siRNA
Source text: Anti-ARL4C and anti-PIK3CD antibodies were purchased from Abcam (Cambridge, UK) and Santa Cruz Biotechnology (Santa Cruz, CA, USA), respectively. Anti-phosphorylated AKT (S473) antibody, anti-AKT antibody, anti-Ki-67 antibody, and anti-YAP/TAZ were purchased from Cell Signaling Technology (Beverly, MA, USA). PD184161 (MEK1/2 inhibitor) and VivoGlo luciferin were purchased from Sigma-Aldrich (Steinheim, Germany) and Promega (Madison, WI, USA), respectively.
as §1

## PIK3CD siRNA: siRNA against PIK3CD, Table 3, SEQ ID NO: 102 and 103 (chain 1 GCGAATACTCTGCCATTAT; chain 2 GCCAACTAACTCTGCAGAT; two separate siRNAs, only sense strands listed, further chemistry not given here) [reference compound]
HLE cells
  cell proliferation: suppressed cell proliferation
AKT
  AKT activity (pAKT S473): reduced AKT activity
